According to patent publication US9629872B2, “Sodium thiosulphate for the treatment of ectopic calcifications” (Institut National de la Sante et de la Recherche Medicale …, priority 2012, dated 2017):

What was measured:
[1] = tested on: dystrophic calcification; settings: cited from earlier work
[2] = injectable solution of 0.15 g/mL with sodium phosphate dodecahydrate 1.21%, packaged in an ampoule; cited from earlier work
[3] = tested on: ossifications (ankle region and popliteal fossa area); assay: Topical treatment of a child with progressive osseous heteroplasia (Example 3); format: in vivo, human; settings: before the topical treatment; given with non steroidal anti-inflammatory medications
Description: A child, weighing 27 kg, suffering from progressive osseous heteroplasia presented with significant ossifications that were responsible for a limitation of function in the right foot: in the ankle region, with an estimated surface area of 10 cm×5 cm, and in the popliteal fossa area with 2 patches, having an estimated surface area of 6 cm×4 cm each.
These exploratory tests were carried out in addition to the usual checkup including the exploration of renal function and liver function, as well as calcium and phosphate checkup.

Compound	superficial calcifications ([1]; after six months, 10% compresses twice a week, with topical corticosteroid, acetic acid compresses and oral antibiotics)	pains ([1]; after six months, 10% compresses, combined treatment)	re-epithelialisation over the wound regions ([1]; three months later (after the first six months))	stability [2] [years]	improvement under earlier treatment [3]
O=S([O-])([O-])=S.[Na+].[Na+] [sodium thiosulfate]	dissolved	progressively abated	almost complete re-epithelialisation	3	
CC(O)(P(=O)(O)O)P(=O)(O)O [disodium etidronate]					No improvement
